Results taken from paper PMC12819154, “High-throughput peptide-centric local stability assay extends protein–ligand identification to membrane proteins, tissues and bacteria” (Nature Structural & Molecular Biology, 2025).

Tests used:
Type in all cases: biochemical
GuaC = target: T1, GuaC (Escherichia coli, UniProt P60560); assay: HT-PELSA limited trypsin proteolysis MS, dose-response; settings: desalted E. coli lysate, Mg2+ (10 mM MgCl2 added), 25 °C, 30 min; allosteric
T1 construct: endogenous full-length protein in desalted E. coli lysate
T1 sequence (P60560 1-347): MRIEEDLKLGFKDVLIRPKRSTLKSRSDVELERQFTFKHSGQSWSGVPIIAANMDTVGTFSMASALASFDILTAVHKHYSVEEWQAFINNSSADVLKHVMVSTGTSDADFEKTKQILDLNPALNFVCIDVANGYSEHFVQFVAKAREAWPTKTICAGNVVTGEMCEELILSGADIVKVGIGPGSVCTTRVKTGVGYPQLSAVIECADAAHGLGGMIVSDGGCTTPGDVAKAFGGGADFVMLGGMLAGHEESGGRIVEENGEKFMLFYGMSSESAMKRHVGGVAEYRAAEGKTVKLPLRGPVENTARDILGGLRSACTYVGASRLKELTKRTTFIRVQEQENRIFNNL

pbpG = target: T2, pbpG (Escherichia coli, UniProt P0AFI5); assay: HT-PELSA limited trypsin proteolysis MS, single concentration; settings: crude E. coli lysate, 10 μM ampicillin, 25 °C, 30 min
T2 construct: endogenous protein in crude E. coli lysate
T2 sequence (P0AFI5 26-310): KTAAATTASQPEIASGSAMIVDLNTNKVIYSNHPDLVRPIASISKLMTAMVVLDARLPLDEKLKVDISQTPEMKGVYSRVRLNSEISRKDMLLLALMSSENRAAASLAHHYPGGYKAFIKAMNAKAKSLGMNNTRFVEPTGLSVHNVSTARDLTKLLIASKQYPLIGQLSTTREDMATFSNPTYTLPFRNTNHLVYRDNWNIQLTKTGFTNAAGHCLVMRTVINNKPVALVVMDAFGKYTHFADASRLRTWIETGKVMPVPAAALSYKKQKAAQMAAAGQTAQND

mrcA = target: T3, mrcA (Escherichia coli, UniProt P02918); assay: as above; settings: crude E. coli lysate, 10 μM ampicillin, 25 °C, 30 min; C-terminal transpeptidase domain
T3 construct: endogenous membrane protein in crude E. coli lysate
T3 sequence (P02918 1-850): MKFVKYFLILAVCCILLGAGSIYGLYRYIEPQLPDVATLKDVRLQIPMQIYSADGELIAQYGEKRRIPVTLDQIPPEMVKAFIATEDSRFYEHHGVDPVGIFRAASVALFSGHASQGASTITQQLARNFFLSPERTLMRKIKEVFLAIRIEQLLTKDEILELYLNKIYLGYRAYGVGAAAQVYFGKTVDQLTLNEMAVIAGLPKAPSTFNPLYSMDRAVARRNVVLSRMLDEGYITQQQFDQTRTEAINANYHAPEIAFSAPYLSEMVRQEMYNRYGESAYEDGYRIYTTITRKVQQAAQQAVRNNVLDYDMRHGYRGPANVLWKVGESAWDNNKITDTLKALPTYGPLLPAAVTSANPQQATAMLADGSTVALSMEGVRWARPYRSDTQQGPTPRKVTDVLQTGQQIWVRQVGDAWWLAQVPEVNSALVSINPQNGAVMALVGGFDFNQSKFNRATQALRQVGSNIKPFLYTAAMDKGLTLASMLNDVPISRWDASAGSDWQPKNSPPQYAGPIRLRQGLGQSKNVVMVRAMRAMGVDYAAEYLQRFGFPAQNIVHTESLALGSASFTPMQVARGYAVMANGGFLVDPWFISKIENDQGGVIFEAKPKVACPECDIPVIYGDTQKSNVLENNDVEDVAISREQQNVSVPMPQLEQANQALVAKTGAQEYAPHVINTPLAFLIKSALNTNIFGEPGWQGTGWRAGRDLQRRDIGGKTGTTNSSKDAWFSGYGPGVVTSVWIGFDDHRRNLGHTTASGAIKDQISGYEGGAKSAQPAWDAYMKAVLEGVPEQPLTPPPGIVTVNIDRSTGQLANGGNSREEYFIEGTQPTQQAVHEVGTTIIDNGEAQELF

mrcB = target: T4, mrcB (Escherichia coli, UniProt P02919); assay: as above; settings: crude E. coli lysate, 10 μM ampicillin, 25 °C, 30 min; C-terminal transpeptidase domain
T4 construct: endogenous membrane protein in crude E. coli lysate
T4 sequence (P02919 1-844): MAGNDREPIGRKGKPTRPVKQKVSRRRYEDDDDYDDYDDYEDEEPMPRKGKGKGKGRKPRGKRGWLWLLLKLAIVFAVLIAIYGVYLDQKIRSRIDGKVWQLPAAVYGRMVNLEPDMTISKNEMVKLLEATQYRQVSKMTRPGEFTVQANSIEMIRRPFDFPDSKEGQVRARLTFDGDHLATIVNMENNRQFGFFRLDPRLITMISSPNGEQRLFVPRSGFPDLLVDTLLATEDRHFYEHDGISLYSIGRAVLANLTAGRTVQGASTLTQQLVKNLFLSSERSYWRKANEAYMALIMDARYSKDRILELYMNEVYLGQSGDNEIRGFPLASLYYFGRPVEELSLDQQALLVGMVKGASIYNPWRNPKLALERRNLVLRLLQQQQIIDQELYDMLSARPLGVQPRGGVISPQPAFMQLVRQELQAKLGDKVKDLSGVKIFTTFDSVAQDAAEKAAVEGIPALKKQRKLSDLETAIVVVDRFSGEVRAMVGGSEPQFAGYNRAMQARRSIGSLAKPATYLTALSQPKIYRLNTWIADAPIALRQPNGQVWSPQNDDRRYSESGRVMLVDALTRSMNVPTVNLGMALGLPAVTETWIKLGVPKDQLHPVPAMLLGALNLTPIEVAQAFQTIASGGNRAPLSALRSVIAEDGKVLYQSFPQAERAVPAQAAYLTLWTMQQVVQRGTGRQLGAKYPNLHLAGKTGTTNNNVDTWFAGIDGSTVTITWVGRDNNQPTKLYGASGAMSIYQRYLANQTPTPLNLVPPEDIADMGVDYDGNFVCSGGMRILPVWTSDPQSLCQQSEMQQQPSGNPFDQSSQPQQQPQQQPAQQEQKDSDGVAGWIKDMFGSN

ftsI = target: T5, ftsI (Escherichia coli, UniProt P0AD68); assay: as above; settings: crude E. coli lysate, 10 μM ampicillin, 25 °C, 30 min
T5 construct: endogenous membrane protein in crude E. coli lysate
T5 sequence (P0AD68 1-577): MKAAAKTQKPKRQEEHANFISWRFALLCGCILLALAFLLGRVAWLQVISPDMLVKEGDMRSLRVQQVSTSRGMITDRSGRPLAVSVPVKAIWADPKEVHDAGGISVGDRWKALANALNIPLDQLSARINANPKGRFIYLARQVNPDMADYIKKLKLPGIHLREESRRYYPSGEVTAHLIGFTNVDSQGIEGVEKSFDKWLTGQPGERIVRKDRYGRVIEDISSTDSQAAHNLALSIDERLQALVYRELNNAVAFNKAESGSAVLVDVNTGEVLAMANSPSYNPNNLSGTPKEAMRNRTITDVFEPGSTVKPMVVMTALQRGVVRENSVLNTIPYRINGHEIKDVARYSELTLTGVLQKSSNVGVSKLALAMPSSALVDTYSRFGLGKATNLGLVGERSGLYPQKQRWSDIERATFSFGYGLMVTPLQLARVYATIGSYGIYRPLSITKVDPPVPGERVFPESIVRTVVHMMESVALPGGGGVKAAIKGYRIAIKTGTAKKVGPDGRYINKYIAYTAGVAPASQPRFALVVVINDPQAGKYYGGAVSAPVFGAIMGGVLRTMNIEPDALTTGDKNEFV

dacB = target: T6, dacB (Escherichia coli, UniProt P24228); assay: as above; settings: crude E. coli lysate, 10 μM ampicillin, 25 °C, 30 min
T6 construct: endogenous protein in crude E. coli lysate

α subunit Prkaa2 of Ampk = target: T7, α subunit Prkaa2 of Ampk (Mus musculus, UniProt Q8BRK8); assay: HT-PELSA limited trypsin proteolysis MS, dose-response; settings: mouse heart lysate in PBS, 25 °C, 30 min, 0.2 nM-20 μM
T7 construct: endogenous catalytic subunit of AMPK in mouse heart lysate

Csn1ke = target: T8, Csn1ke (Mus musculus, UniProt Q9JMK2); assay: as above; settings: mouse heart lysate in PBS, 25 °C, 30 min, 0.2 nM-20 μM
T8 construct: gene Csnk1e; endogenous protein in mouse heart lysate; printed Csn1ke read as Csnk1e
T8 sequence (Q9JMK2 1-416): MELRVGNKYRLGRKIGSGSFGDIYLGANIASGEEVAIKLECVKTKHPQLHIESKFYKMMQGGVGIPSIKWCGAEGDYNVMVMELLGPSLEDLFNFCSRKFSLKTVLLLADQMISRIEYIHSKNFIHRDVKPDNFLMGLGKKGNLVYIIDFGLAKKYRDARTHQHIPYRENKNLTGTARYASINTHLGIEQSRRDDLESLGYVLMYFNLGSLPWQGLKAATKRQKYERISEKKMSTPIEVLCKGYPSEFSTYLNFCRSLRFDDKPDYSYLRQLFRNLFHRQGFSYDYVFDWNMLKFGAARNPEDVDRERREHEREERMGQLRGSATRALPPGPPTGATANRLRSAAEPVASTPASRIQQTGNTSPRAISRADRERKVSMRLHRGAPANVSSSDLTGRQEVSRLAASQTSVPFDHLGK

T7 sequence (Q8BRK8 whole entry): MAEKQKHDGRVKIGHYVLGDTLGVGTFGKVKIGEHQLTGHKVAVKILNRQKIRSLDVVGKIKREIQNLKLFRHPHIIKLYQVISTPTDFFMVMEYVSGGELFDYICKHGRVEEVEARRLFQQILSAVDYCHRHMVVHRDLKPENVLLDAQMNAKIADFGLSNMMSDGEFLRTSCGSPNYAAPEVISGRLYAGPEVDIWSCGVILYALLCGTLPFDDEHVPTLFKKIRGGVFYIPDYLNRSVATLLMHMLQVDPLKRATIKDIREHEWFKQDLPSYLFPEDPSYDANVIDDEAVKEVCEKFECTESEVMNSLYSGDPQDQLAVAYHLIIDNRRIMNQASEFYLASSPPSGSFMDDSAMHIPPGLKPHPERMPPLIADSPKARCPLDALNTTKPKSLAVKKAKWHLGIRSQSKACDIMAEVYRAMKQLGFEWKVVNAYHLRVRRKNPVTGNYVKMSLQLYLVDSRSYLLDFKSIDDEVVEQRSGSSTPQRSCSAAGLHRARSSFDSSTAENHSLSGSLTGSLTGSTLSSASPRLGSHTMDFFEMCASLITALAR
T6 sequence (P24228 21-477): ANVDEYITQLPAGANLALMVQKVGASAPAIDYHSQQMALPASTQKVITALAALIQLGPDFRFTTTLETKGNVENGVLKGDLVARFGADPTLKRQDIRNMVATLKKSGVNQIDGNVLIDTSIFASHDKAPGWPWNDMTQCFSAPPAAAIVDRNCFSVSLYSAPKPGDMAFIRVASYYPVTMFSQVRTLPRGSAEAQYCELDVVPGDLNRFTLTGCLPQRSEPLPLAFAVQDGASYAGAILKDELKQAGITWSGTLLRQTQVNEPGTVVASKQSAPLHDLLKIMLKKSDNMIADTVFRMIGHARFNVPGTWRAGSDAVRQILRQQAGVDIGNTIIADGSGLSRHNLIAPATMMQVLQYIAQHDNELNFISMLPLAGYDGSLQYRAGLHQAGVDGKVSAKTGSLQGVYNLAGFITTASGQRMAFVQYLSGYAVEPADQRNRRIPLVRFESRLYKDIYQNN

Nc1ncnc2c1ncn2[C@@H]1O[C@H](COP(=O)(O)OP(=O)(O)OP(=O)(O)O)[C@@H](O)[C@H]1O [ATP]
pEC50 (GuaC): Among the non-annotated ATP binders, we identify GuaC

CC1(C)S[C@@H]2[C@H](NC(=O)[C@H](N)c3ccccc3)C(=O)N2[C@H]1C(=O)O [ampicillin]
HT-PELSA limited trypsin proteolysis MS, single concentration (pbpG): HT-PELSA identified five known targets of ampicillin (mrcA, mrcB, ftsI, dacB and pbpG | HT-PELSA limited trypsin proteolysis MS, single concentration (mrcA): HT-PELSA identified five known targets of ampicillin (mrcA, mrcB, ftsI, dacB and pbpG | HT-PELSA limited trypsin proteolysis MS, single concentration (mrcB): HT-PELSA identified five known targets of ampicillin (mrcA, mrcB, ftsI, dacB and pbpG | HT-PELSA limited trypsin proteolysis MS, single concentration (ftsI): HT-PELSA identified five known targets of ampicillin (mrcA, mrcB, ftsI, dacB and pbpG | HT-PELSA limited trypsin proteolysis MS, single concentration (dacB): HT-PELSA identified five known targets of ampicillin (mrcA, mrcB, ftsI, dacB and pbpG

CCN(CC)CCNC(=O)c1c(C)[nH]c(/C=C2\C(=O)Nc3ccc(F)cc32)c1C [sunitinib]
pEC50 (α subunit Prkaa2 of Ampk): the α subunit Prkaa2 of Ampk, Camk2g, Csn1ke and Csnk1g2 | pEC50 (Csn1ke): the α subunit Prkaa2 of Ampk, Camk2g, Csn1ke and Csnk1g2
